Data published in PMC5141252, “In silico Screening and Evaluation of the Anticonvulsant Activity of Docosahexaenoic Acid-Like Molecules in Experimental Models of Seizures” (Iranian Biomedical Journal, 2017).
Marks after values point to notes of the source that are not given here.

Legend:
[1] = tested on: clonic seizures induced by pentylenetetrazole; experiment: Pentylenetetrazole seizure test; format: in vivo; conditions: mice; for Protection (%): 15 min before PTZ 60 mg/kg i.p.; for ED50 (mM) and 95% CI: PTZ clonic seizures, log-Probit analysis
Procedure: (§1) All compounds were prepared freshly before administration. The compounds were dissolved in DMSO and then were diluted in artificial cerebrospinal fluid consisting (in mM) 124.0 NaCl, 25 NaHCO3, 10 D-glucose,4.4 KCl, 2 MgSO4, 1.25 KH2PO4, and 2 CaCl2. The final concentration of DMSO was maintained at 10%. The pH of the solutions was adjusted at the range of 7.2-7.4. Doses of the compounds were selected based on the preliminary experiments conducted in our laboratory.
(§2) DHA-like molecules were administered by intracerebroventricular (i.c.v.) route according to the method described earlier. Briefly, a 3.5-mm-long needle (27 Gauge) was connected to a 10-μL Hamilton microsyringe. The site of injection was 2 mm lateral to the midline on a line drawn through the anterior base of the ears and 3.5 mm in depth from the surface of skull skin. The solution was injected at a rate of 10 µL/10 s and the needle left in place for 60 s after injection.
Fifteen minutes after i.c.v. injection of the compounds, PTZ (60 mg/kg) was injected to the mice intraperitoneally (i.p.). This time period was selected based on the time course of DHA anticonvulsant activity in mice[6]. The occurrence of colonic seizures was monitored in animals for 30 min.
(§3) Statistical analysis was performed by SPSS for Windows software version 16.0. Data obtained from the seizure tests were expressed as percentage of the protected mice. Fisher’s exact test was used to analyze the data. The dose of the drugs that produced anticonvulsant effect in 50% of the animals (ED50), and its associated 95% confidence interval, was calculated by log-Probit analysis.

[2] = tested on: tonic seizures induced by MES; experiment: Maximal electroshock seizure test; format: in vivo; conditions: mice; for Protection (%): 15 min before MES (50 Hz, 50 mA); for ED50 (mM) and 95% CI: i.c.v., MES tonic seizures, log-Probit analysis
Procedure: as §1, §2
Fifteen minutes after i.c.v. injection of the compounds, an electrical stimulus (50 Hz, 50 mA, 1 s duration) was delivered to the mice through ear-clip electrodes[6] using a stimulator apparatus (MGH-777, Development of Electronic Industry, Iran).
as §3

[3] = tested on: tonic seizures induced by MES; set-up: method as in PMID 26018398; conditions: cited from earlier work
[4] = tested on: clonic seizures induced by pentylenetetrazole; set-up: method as in PMID 26018398; conditions: PTZ test, mice, i.c.v administration; cited from earlier work

SMILES: CCC(C(=O)O)c1ccccc1 (stereo not shown) [2-Phenylbutyric acid]
- Protection (%) ([1]; dose 0.0001 M i.c.v.): 0%
- Protection (%) ([1]; dose 0.001 M i.c.v.): 30%
- Protection (%) ([1]; dose 0.01 M i.c.v.): 40^b %
- Protection (%) ([1]; dose 0.1 M i.c.v.): 56.6^a %
- ED50 (mM) and 95% CI ([1]; i.c.v.): 70.0 (25.0-144.2) mM

SMILES: COc1ccc(CC(=O)O)cc1OC [3,4-Dimethoxyphenylacetic acid, 3,4-Dimethoxyphenylacetic acid]
- anticonvulsant activity (in words) ([1]; PTZ and MES seizure tests, i.c.v.): inactive

SMILES: O=C(O)Cc1ccc(-c2ccccc2)cc1 [4-Biphenylacetic acid]
- Protection (%) ([1]; dose 0.0001 M i.c.v.): 15%
- Protection (%) ([1]; dose 0.001 M i.c.v.): 35%
- Protection (%) ([1]; dose 0.0075 M i.c.v.): 50%
- Protection (%) ([1]; dose 0.01 M i.c.v.): 85^a %
- ED50 (mM) and 95% CI ([1]; i.c.v.): 5.0 (3.0-5.0) mM

SMILES: O=C(O)CCCc1ccccc1 [4-Phenylbutyric acid]
- Protection (%) ([1]; dose 0.0001 M i.c.v.): 25%
- Protection (%) ([1]; dose 0.001 M i.c.v.): 50^b %
- Protection (%) ([1]; dose 0.01 M i.c.v.): 73.3^a %
- ED50 (mM) and 95% CI ([1]; i.c.v.): 4.0 (0.0-7.0) mM

SMILES: CC(C)(C)C1CCC(C(=O)O)CC1 (stereo not shown) [4-tert-Butylcyclohexanecarboxylic acid]
- Protection (%) ([2]; dose 0.001 M i.c.v.): 37.5%
- Protection (%) ([2]; dose 0.01 M i.c.v.): 46.6^b %
- Protection (%) ([2]; dose 0.1 M i.c.v.): 73.3^a %
- ED50 (mM) and 95% CI ([2]; listed as 4-tert-Butylcyclo-hexanecarboxylic acid): 637 mM
- ED50 (mM) and 95% CI ([2]; listed as 4-tert-Butylcyclohexane carboxylic acid): 29.0 (0.0-66.0) mM

SMILES: CC/C=C\C/C=C\C/C=C\C/C=C\C/C=C\C/C=C\CCC(=O)O [DHA, Docosahexaenoic acid]
- inhibition of tonic seizures in the MES model [3]: not able to inhibit tonic seizures
- ED50 [4]: 0.00013 mM

SMILES: O=C(O)Cc1ccccc1 [Phenylacetic acid]
- Protection (%) ([1]; dose 0.0001 M i.c.v.): 0%
- Protection (%) ([1]; dose 0.001 M i.c.v.): 20%
- Protection (%) ([1]; dose 0.01 M i.c.v.): 30%
- Protection (%) ([1]; dose 0.1 M i.c.v.): 57.5^a %
- ED50 (mM) and 95% CI ([1]; i.c.v.): 78 mM
- ED50 (mM) and 95% CI ([1]; i.c.v., listed as Phenylbutyric acid): 78.0 (46.0-156.0) mM

SMILES: O=C(O)C1=C[C@@H](O)[C@@H](O)[C@H](O)C1 [Shikimic acid]
- Protection (%) ([2]; dose 0.01 M i.c.v.): 0%
- Protection (%) ([2]; dose 0.1 M i.c.v.): 20.0%
- Protection (%) ([2]; dose 0.5 M i.c.v.): 43.3^b %
- Protection (%) ([2]; dose 1 M i.c.v.): 70.0^a %
- ED50 (mM) and 95% CI [2]: 637.0 (418.0-890.0) mM
- ED50 (mM) and 95% CI ([2]; listed as shikimic acid): 29 mM
